{
  "source": "patent US20160311806A1",
  "about": "“4,4'-BIPHENYLDIYL-BIS-(1 H-IMIDAZOLYL) DERIVATIVES AS HEPATITIS HCV INHIBITORS” (BRISTOL-MYERS SQUIBB COMPANY, priority 2013, published 2016)",
  "key": {"HCV 1b genotype": {"system": "HCV 1b genotype", "experiment": "HCV replicon assay, genotype 1b", "assay_type": "cell-based", "details": "Hepatitis C virus, read-out: 1b LE (EC50)", "description": "(§1) An HCV Replicon assay was utilized in the present disclosure, and was prepared, conducted and validated as described in commonly owned PCT/US2006/022197 and in O'Boyle et. al. Antimicrob Agents Chemother. 2005 April; 49(4):1346-53. Assay methods incorporating luciferase reporters have also been used as described (Apath.com).\n(§2) HCV-neo replicon cells and replicon cells containing resistance substitutions in the NS5A region were used to test the currently described family of compounds. The compounds were determined to have differing degrees of reduced inhibitory activity on cells containing mutations vs. the corresponding inhibitory potency against wild-type cells. Thus, the compounds of the present disclosure can be effective in inhibiting the function of the HCV NS5A protein and are understood to be as effective in combinations as previously described in application PCT/US2006/022197 and commonly owned WO/04014852. It should be understood that the compounds of the present disclosure can inhibit multiple genotypes of HCV."}, "HCV 1a": {"system": "HCV 1a", "experiment": "HCV replicon assay, genotype 1a", "assay_type": "cell-based", "details": "Hepatitis C virus, read-out: 1a LE (EC50)", "description": "as §1, §2"}},
  "note": "Read-outs that look alike come from different tables or passages of the source.",
  "data": [
    {"compound": "CC[C@@H]1C[C@@H]([C@H](NC(=O)OC)C(=O)N2[C@@H](C)CC[C@H]2c2ncc(-c3ccc(-c4ccc(-c5cnc([C@@H]6CC[C@H](C)N6C(=O)[C@@H](NC(=O)OC)[C@H]6C[C@@H](C)O[C@H](C7CC7)C6)[nH]5)cc4)cc3)[nH]2)C[C@@H](C)O1", "note": "[Example 1, methyl N-[(1S)-1-[(2S,4S,6R)-2-cyclopropyl-6-methyloxan-4-yl]-2-[(2S,5S)-2-{5-[4-(4-{2-[(2S,5S)-1-[(2S)-2-[(2R,4S,6R)-2-ethyl-6-methyloxan-4-yl]-2-[(methoxycarbonyl)amino]acetyl]-5-methylpyrrolidin-2-yl]-1H-imidazol-5-yl}phenyl)phenyl]-1H-imidazol-2-yl}-5-methylpyrrolidin-1-yl]-2-oxoethyl]carbamate]", "values": [
      {"measurement": "EC50", "setting": "HCV 1b genotype; given as range class", "result": "2 to 8", "unit": "pM"},
      {"measurement": "EC50", "setting": "HCV 1a; given as range class", "result": "2 to 8", "unit": "pM"}
    ]},
    {"compound": "CC[C@@H]1C[C@@H]([C@H](NC(=O)OC)C(=O)N2[C@@H](C)CC[C@H]2c2ncc(-c3ccc(-c4ccc(-c5cnc([C@@H]6CC[C@H](C)N6C(=O)[C@@H](NC(=O)OC)[C@H]6C[C@@H](C)O[C@H](C7CC7)C6)[nH]5)cc4)cc3)[nH]2)CCO1", "note": "[Example 2, methyl N-[(1S)-1-[(2S,4S,6R)-2-cyclopropyl-6-methyloxan-4-yl]-2-[(2S,5S)-2-{5-[4-(4-{2-[(2S,5S)-1-[(2S)-2-[(2R,4S)-2-ethyloxan-4-yl]-2-[(methoxycarbonyl)amino]acetyl]-5-methylpyrrolidin-2-yl]-1H-imidazol-5-yl}phenyl)phenyl]-1H-imidazol-2-yl}-5-methylpyrrolidin-1-yl]-2-oxoethyl]carbamate]", "values": [
      {"measurement": "EC50", "setting": "HCV 1b genotype", "result": 5.76, "unit": "pM"},
      {"measurement": "EC50", "setting": "HCV 1a", "result": 4.52, "unit": "pM"}
    ]},
    {"compound": "COC(=O)N[C@H](C(=O)N1[C@@H](C)CC[C@H]1c1ncc(-c2ccc(-c3ccc(-c4cnc([C@@H]5CC[C@H](C)N5C(=O)[C@@H](NC(=O)OC)[C@H]5C[C@@H](C)O[C@H](C6CC6)C5)[nH]4)cc3)cc2)[nH]1)C(C)C", "note": "[Example 3, methyl N-[(1S)-1-[(2S,4S,6R)-2-cyclopropyl-6-methyloxan-4-yl]-2-[(2S,5S)-2-{5-[4-(4-{2-[(2S,5S)-1-[(2S)-2-[(methoxycarbonyl)amino]-3-methylbutanoyl]-5-methylpyrrolidin-2-yl]-1H-imidazol-5-yl}phenyl)phenyl]-1H-imidazol-2-yl}-5-methylpyrrolidin-1-yl]-2-oxoethyl]carbamate]", "values": [
      {"measurement": "EC50", "setting": "HCV 1b genotype", "result": 2.72, "unit": "pM"},
      {"measurement": "EC50", "setting": "HCV 1a", "result": 7.18, "unit": "pM"}
    ]},
    {"compound": "COC(=O)N[C@H](C(=O)N1[C@@H](C)CC[C@H]1c1ncc(-c2ccc(-c3ccc(-c4cnc([C@@H]5CC[C@H](C)N5C(=O)[C@H](NC(=O)OC)c5ccccc5)[nH]4)cc3)cc2)[nH]1)[C@H]1C[C@@H](C)O[C@H](C2CC2)C1", "note": "[Example 4, methyl N-[(1S)-1-[(2S,4S,6R)-2-cyclopropyl-6-methyloxan-4-yl]-2-[(2S,5S)-2-{5-[4-(4-{2-[(2S,5S)-1-[(2R)-2-[(methoxycarbonyl)amino]-2-phenylacetyl]-5-methylpyrrolidin-2-yl]-1H-imidazol-5-yl}phenyl)phenyl]-1H-imidazol-2-yl}-5-methylpyrrolidin-1-yl]-2-oxoethyl]carbamate]", "values": [
      {"measurement": "EC50", "setting": "HCV 1b genotype; given as range class", "result": "2 to 8", "unit": "pM"},
      {"measurement": "EC50", "setting": "HCV 1a; given as range class", "result": "2 to 8", "unit": "pM"}
    ]},
    {"compound": "COC(=O)N[C@H](C(=O)N1[C@@H](C)CC[C@H]1c1ncc(-c2ccc(-c3ccc(-c4cnc([C@@H]5CC[C@H](C)N5C(=O)[C@@H](NC(=O)OC)[C@H]5C[C@@H](C)O[C@H](C6CC6)C5)[nH]4)cc3)cc2)[nH]1)C1C[C@@H](C)O[C@H](C)C1", "note": "(stereo partly drawn) [Example 5, methyl N-[(1S)-1-[(2S,4S,6R)-2-cyclopropyl-6-methyloxan-4-yl]-2-[(2S,5S)-2-{5-[4-(4-{2-[(2S,5S)-1-[(2S)-2-[(2R,6R)-2,6-dimethyloxan-4-yl]-2-[(methoxycarbonyl)amino]acetyl]-5-methylpyrrolidin-2-yl]-1H-imidazol-5-yl}phenyl)phenyl]-1H-imidazol-2-yl}-5-methylpyrrolidin-1-yl]-2-oxoethyl]carbamate]", "values": [
      {"measurement": "EC50", "setting": "HCV 1b genotype; given as range class", "result": "2 to 8", "unit": "pM"},
      {"measurement": "EC50", "setting": "HCV 1a; given as range class", "result": "2 to 8", "unit": "pM"}
    ]}
  ]
}
